The source of these data is patent publication US20240208961A1, “EIF4E INHIBITORS AND USES THEREOF” (PIC Therapeutics, Inc., priority 2022, published 2024).

The structures appear in SMILES notation. Bounds are passed on as bounds.

For assay [1], the system named is ZR-75-1. The assay is described as follows: Cell viability assay, adherent cell line, 5 day Alamar Blue (Example 8): ZR-75-1. The class given is cell-based. The following applies: Homo sapiens, 120 h, ZR-75-1, Breast Cancer Cell Viability. On the procedure:
(§1) Cell viability assays were performed on certain compounds of the disclosure, according to the following procedure.
(§2) Cell line specific media conditions used:
(§3) The procedure for adherent cell line compound screening was as follows:
(§4) • Cells were seeded in 96-well cell culture treated tissue culture plates: ZR-75-1, NIHOVCAR3, T47D, and LOVO cells 4000 cells/well; and HPAFII 3000 cell/well
(§5) Day 3: Compound Dilution and Dosing
(§6) • 5-fold serial dilution (8 point) of each compound in DMSO 0-25 mM in compound storage plates was prepared (stored at −80° C. if not to be used immediately). • Cells were rinsed with 1% FBS Media (appropriate to cell line as described above) and replaced with 87.5 μL media prior to dosing. HPAFII was screened in normal 10% FBS Media. • DMSO compound dilution series was diluted in 1% FBS media (appropriate to cell line as described above)—2 μL in 248 μL to give an 8× final concentration. • Cells were dosed 12.5 μL/well in triplicate to give final dose curved on cells 0-25 μM. • Media blank 100 μL/well×8 was set up. • All plates were incubated at 37° C.
(§7) Day 8: 5 Day Viability Assay
(§8) • Alamar Blue viability reagent was added (10 μL per well) and incubated for 3 hours at 37° C. prior to fluorescence detection (Ex560 nm/Em590 nm) on a Varioskan Lux multimode plate reader.
(§9) Results from cell viability assays are summarized in Table 23, wherein A represents IC50≤1 μM; B represents 1 μM<IC50≤8 μM; and C represents IC50>8 μM. Blank cells indicate that the compound was not tested in a particular assay.
(The colour change of resazurin is a common sign of viable cells or microbes.)

Assay [2] deals with ZR-75-1. Briefly: ZR-75-1 compound screening cell viability, Alamar Blue (Example 6). The assay is classed as cell-based. The following applies: Homo sapiens, 96 h, ZR-75-1 cells, Media 1% FBS, read-out: ZR-75-1 Cell Viability, 4 Days: IC50.
For a further assay, the system named is NCIH510A. The assay is described as follows: Cell viability assay, suspension cell line, 5 day Alamar Blue (Example 8): NCIH510A. The assay is classed as cell-based. The following applies: Homo sapiens, NCI-H510A, 120 h, Small Cell Lung Cancer Cell Line. On the procedure:
as §1, §2
(§10) The procedure for suspension cell line compound screening was as follows:
(§11) Day 1: Cell Seeding and Compound Dosing
as §6, with “• Cells were seeded 2×10^5 in 96-well cell culture treated tissue culture plates: 87.5 μL/well; MM.1 S, MM,1R, NCIH510A. • 5-fold” for “• 5-fold”, “to dosing. • DMSO” for “to dosing. HPAFII was screened in normal 10% FBS Media. • DMSO”
(§12) Day 6: 5 Day Viability Assay
as §8, §9

The subject of the next assay is NIHOVCAR3. Briefly: Cell viability assay, adherent cell line, 5 day Alamar Blue (Example 8): NIHOVCAR3. The assay is classed as cell-based. The following applies: Homo sapiens, OVCAR-3, 120 h, OVCAR3, Ovarian Cancer Cell. Here is the method: as §1, §2, §3, §4, §5, §6, §7, §8, §9
Another assay has as its system LoVo. Briefly: Cell viability assay, adherent cell line, 5 day Alamar Blue (Example 8): LoVo. The class given is cell-based. The following applies: Homo sapiens, 120 h, Colorectal Cancer Cell Viability. On the procedure: as §1, §2, §3, §4, §5, §6, §7, §8, §9
The subject of a further assay is MM.1R. The assay is described as follows: Cell viability assay, suspension cell line, 5 day Alamar Blue (Example 8): MM.1R. The assay is classed as cell-based. The following applies: 120 h, Multiple Myeloma (Steroid Resistant) Cancer Cell. Here is the method: as §1, §2, §10, §11
as §6, with “• Cells were seeded 2×10^5 in 96-well cell culture treated tissue culture plates: 87.5 μL/well; MM.1 S, MM,1R, NCIH510A. • 5-fold” for “• 5-fold”, “to dosing. • DMSO” for “to dosing. HPAFII was screened in normal 10% FBS Media. • DMSO”
as §12, §8, §9

A further assay concerns T47D. Briefly: Cell viability assay, adherent cell line, 5 day Alamar Blue (Example 8): T47D. The assay is classed as cell-based. The following applies: Homo sapiens, 120 h, Breast Cancer Cell Viability. On the procedure:
as §1, §2, §3, §4, §5, §6, §7, §8, §9

A further assay deals with HPAFII. Briefly: Cell viability assay, adherent cell line, 5 day Alamar Blue (Example 8): HPAFII. The following applies: Homo sapiens, HPAF-II, 120 h, Pancreatic Cancer Cell. The assay is classed as cell-based. Here is the method: as §1, §2, §3, §4, §5, §6, §7, §8, §9
Another assay relates to MM.1S. Briefly: Cell viability assay, suspension cell line, 5 day Alamar Blue (Example 8): MM.1S. The following applies: Homo sapiens, MM1.S, 120 h, Multiple Myeloma (Steroid Sensitive) Cancer Cell. The class given is cell-based. On the procedure:
as §1, §2, §10, §11
as §6, with “• Cells were seeded 2×10^5 in 96-well cell culture treated tissue culture plates: 87.5 μL/well; MM.1 S, MM,1R, NCIH510A. • 5-fold” for “• 5-fold”, “to dosing. • DMSO” for “to dosing. HPAFII was screened in normal 10% FBS Media. • DMSO”
as §12, §8, §9

The target in another assay is T1, Human eIF4E (aa 28-217) (Homo sapiens, UniProt P06730).
T1 construct: Human eIF4E (aa 28-217) with a C-terminal His-tag; made in house
T1 sequence (P06730 28-217): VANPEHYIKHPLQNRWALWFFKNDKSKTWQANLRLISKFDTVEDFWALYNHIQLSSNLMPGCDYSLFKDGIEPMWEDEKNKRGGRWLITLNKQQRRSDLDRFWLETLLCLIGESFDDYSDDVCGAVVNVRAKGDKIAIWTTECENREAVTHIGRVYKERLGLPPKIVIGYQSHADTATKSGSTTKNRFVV
The assay is described as follows: 4G-eIF4E protein-based assay (TR-FRET, biotin labeled 4G2 peptide). The class given is binding. Here is the method:
Human eIF4E ([…]) with a C-terminal His-tag was expressed in E. coli in inclusion bodies. The protein was solubilized with 8 M urea and purified under denaturing conditions using nickel-charged HisTrap HP columns (GE Healthcare). The purified protein was then refolded by diluting in 20 mM Hepes pH 7.0, 0.5 M NaCl, 1 mM DTT, […], 0.5 M arginine plus 6 M urea, and then dialyzing overnight into the same buffer without the urea. The protein was further dialyzed into 20 mM Hepes, pH 6.5, 50 mM NaCl, 1 mM EDTA, 1 mM DTT, and concentrated using Hitrap SP sepharose FF columns (GE Healthcare). The concentrated protein was dialyzed into 20 mM Hepes, pH 7.0, 0.5M NaCl, 5 mM DTT and […], and stored at -80° C. until use. Test compounds (3.43 mM stock in DMSO) were diluted 2-fold in series in DMSO (10 concentration points). Compound solutions (1.2 μL/well) were added into black 384-well polypropylene microplates (Matrix, Thermal Scientific). […] The samples were incubated at room temperature (20-23° C.) for 4 hours. Biotin labeled 4G2 peptide ([…])-NH2, 1.75 μM stock in DMSO) was diluted to 0.13 μM in Assay Buffer (without DTT) and 5 μL/well was added. The samples were incubated at room temperature for 20 min. Five microliters per well of 15 nM Eu-streptavidin (Eu-SA, Perkin Elmer) and 96 nM Allophycocyanin (APC)-anti His antibody (Columbia Biosciences) in Assay Buffer (without DTT) were then added and the samples were incubated at room temperature for 20 min. Assay signals were monitored by reading excitation at 340 nm and emission fluorescence at 615 nm and 665 nm on an Envision reader (Perkin Elmer). Normalized TR-FRET (time-resolved fluorescence resonance energy transfer) assay signal (Rn) was calculated by the formula: […] C=(Ac-Ba)/(Dc-Bd) • Where Ac is the fluorescence intensity of 1.5 nM Eu-SA in the assay buffer at 665 nm. IC50 values were calculated using xLFit program (IDBS).
For orientation: In TR-FRET formats the signal depends on donor and acceptor labels being close together.

Consider `CC(C)c1cnc(Nc2ncc(-c3cccs3)cc2C(=O)O)s1` [Compound I-16], for which the IC50 in the assay with ZR-75-1 [1] and in the assay on ZR-75-1 [2] was over 8000 nM each time.

Consider `Cc1nc(Nc2ncc(-c3cccs3)cc2C(=O)O)sc1CC(C)C` [Compound I-17], for which the IC50 in the assay with ZR-75-1 [1] and in the assay with ZR-75-1 [2] was over 8000 nM each time.

With `CC(C)Cc1cnc(Nc2ncc(-c3cccs3)cc2C(=O)O)s1` [Compound I-18], the IC50 in the assay on ZR-75-1 [1] and with ZR-75-1 [2] was 1000 to 8000 nM each time.

On to `CC(C)Cc1sc(Nc2ncc(-c3cccs3)cc2C(=O)O)nc1C(F)(F)F` [Compound I-22], for which the IC50 with ZR-75-1 [1] and in the assay with ZR-75-1 [2] was 1000 to 8000 nM each time.

For `Cc1ccc(-c2cnc(Nc3nc(C(C)(C)C)c(CC(C)C)s3)c(C(=O)O)c2)s1` [Compound I-24], the IC50 (as a rule, the concentration that gives 50% inhibition) in the assay on NCIH510A is 1000 to 8000 nM; in the assay with ZR-75-1 [1], 1000 to 8000 nM; in the assay with NIHOVCAR3, 1000 to 8000 nM; in the assay on LoVo it was 1000 to 8000 nM; in the assay with MM.1R it was over 8000 nM; in the assay with T47D, 1000 to 8000 nM. Also, the IC50 was over 8000 nM in the assay on HPAFII, over 8000 nM in the assay on MM.1S and at most 500 nM on Human eIF4E (aa 28-217).

The molecule `CC(C)c1sc(Nc2ncc(-c3cccs3)cc2C(=O)O)nc1C(C)(C)C` [Compound I-25] had a 50% inhibitory concentration (IC50) with ZR-75-1 [1] of 1000 to 8000 nM.

As for `CC(C)Cc1sc(Nc2ncc(-c3cccs3)cc2C(=O)O)nc1C(C)C` [Compound I-26], the IC50 with ZR-75-1 [1] is at most 1000 nM.

Regarding `CC(C)Cc1sc(Nc2ncc(-c3cccs3)cc2C(=O)O)nc1C1CCC1` [Compound I-28], the concentration for half-maximal inhibition (IC50) in the assay on NCIH510A, in the assay with ZR-75-1 [1], with NIHOVCAR3, with LoVo, with MM.1R and with T47D was at most 1000 nM each time. The IC50 with HPAFII is at most 1000 nM; in the assay on MM.1S it was at most 1000 nM; on Human eIF4E (aa 28-217) it was 500 to 1000 nM.

As for `Cc1ccc(-c2cnc(Nc3nc(C4CCC(F)(F)CC4)c(CC(C)C)s3)c(C(=O)O)c2)s1` [Compound I-30], the IC50 in the assay on NCIH510A, in the assay on ZR-75-1 [1], in the assay with NIHOVCAR3, with LoVo, with MM.1R and with T47D was 1000 to 8000 nM each time. Besides, the results for the IC50 in the assay on HPAFII, with MM.1S and at Human eIF4E (aa 28-217) were over 8000 nM, 1000 to 8000 nM and 500 to 1000 nM, respectively.

Molecule `CC(C)c1sc(Nc2ncc(-c3cccs3)cc2C(=O)O)nc1C1CCC(F)(F)CC1` [Compound I-31] came in with an IC50 in the assay on ZR-75-1 [1] of 1000 to 8000 nM.
